The results in this text go back to patent US20090099060A1, “Modulation of line-1 reverse transcriptase” (priority 2004, published 2009).

“Also recorded” adds a separate entry of the source.

Test [1] has as its system U-2 OS cells. Description: Telomere length (PNA probe) and cell cycle (PI) by flow cytometry in nucleoside-analog-treated U-2 OS cells. It counts as cell-based, human. The procedure:
(§1) Telomere length in AZT treated and untreated cell lines was measured by flow cytometry with a telomere-specific peptide nucleic acid (PNA) probe^22,23. To determine cell cycle distribution, cells were stained with propidium iodide (PI)^22. […] AZT at the chosen concentration had no effect on telomere length or cell cycle distribution in the HeLa cells (not shown).
Telomere length in untreated (FIG. 4a) and GCV treated cells (FIG. 4b) was measured by flow cytometry with a telomere-specific PNA probe as described above.
To determine cell cycle distribution, cells were stained with propidium iodide (PI).
(§2) Cell lines: All cell lines used in this study were obtained from American Type Culture Collection (Rockville, Md.). The cells origins included osteosarcoma (Saos-2 and U-2 OS), liver ([…]) and uterine cervix (HeLa). Cells were cultured following ATCC recommendation. For treatment of the cells with AZT, the media was supplemented with 0.2 μM of 3′-azido-2′,3′-dideoxythymidine (Sigma)^28.
(§3) Telomere length measurement by flow cytometry: Cell were stained with telomere specific FITC conjugated (C3TA2)3 PNA (Applied Biosystems) probe and contrastained with 0.06 μg/ml PI as described^21.

In test [2] the test system is U-2 OS cells. Description: Bromodeoxyuridine (BdU) incorporation, rate of DNA synthesis in AZT-treated U-2 OS cells. The class given is cell-based, human. The following applies: AZT for 10, 17 and 40 days. Here is the method:
Rate of DNA synthesis was determined by incorporation of 5-bromodeoxyuridine (BdU)^24.
as §2
Bromodeoxyuridine incorporation: Cell staining, for BdU incorporation, was performed using cells which were incubated with […] BrdU (Sigma) for 2.5 h, stained with BU-33 anti-BrdU monoclonal antibodies (Sigma) and FITC labeled Alexa 488 goat anti-mouse IgG (H+ L) (Fab′) fragments (Molecular Probes), contrastained with 50 μg/ml PI (Sigma) and analyzed by flow cytometry as described^24.

Test [3] deals with telomerase-positive tumors (WM1175 malignant melanoma or HUT292DM lung cancer). Description: Telomerase-positive tumors (WM1175 or HUT292DM cells) in immunodeficient mice treated with AZT. The following applies: AZT at the dose used for inhibiting the growth of the ALT cancer cells. It counts as in vivo. Here is the method:
After induction of the tumors, mice in the experimental groups may be treated with AZT. Mice may be injected i.p. twice a day with solution of AZT in PBS with a total daily dose of 10 mg/kg. Mice in the control group may be injected with PBS. Alternatively, AZT at the same daily dose may be given in drinking water. […] As a separate set of controls, telomerase-positive tumors in nude mouse may be induced by injecting the immunodeficient mice with WM1175 (malignant melanoma) or HUT292DM (lung cancer) cells instead of the transformed IIICF/c fibroblast cells.

Test [4] relates to Saos-2 cells. Put plainly: Telomere length (PNA probe) and cell cycle (PI) by flow cytometry in AZT-treated Saos-2 cells. The class given is cell-based, human. The following applies: Saos-2, AZT 0.2 μM, 14 days. Here is the method:
as §1, §2, §3

Test [5] relates to U-2 OS/ras-V12 s.c. tumors. Description: s.c. tumor growth from U-2 OS/ras-V12 cells in nude mice, AZT in drinking water. It counts as in vivo. Conditions: AZT 2 mg/ml in drinking water from day zero. An excerpt:
Exemplary in vivo assays of anti-tumor efficacy of AZT using nude mice subcutaneous (s.c.) tumors grown from the U-2 OS human osteosarcoma cell lines (i.e., xenografts bearing mice) as models are described below.
Human cancerous cells needed for in vivo assays may be prepared, for example, as follows: Telomerase-negative, but ALT positive, U-2 OS human osteosarcoma cell lines are obtained from public sources such as ATCC. Cells are maintained in McCoy 5 media supplemented with 10% fetal calf serum at 37° C. in a humidified atmosphere of 5% CO2. […] Accordingly, activated ras-oncogene expression vector is introduced in near-confluent U-2 OS cells by Lipofectamine 2000% transfection according manufacturer's instructions. One day before transfection U-2 Os cells are seeded at a density 1×10^5 cells in a 6 well-plate. Plasmid pBABE-puro-ras-V12 (available publicly) is linearized by restriction digest with Sca I enzyme. The cells are transfected with the linearized construct and grown in culture. One day after the transfection, cells may be diluted. Then the cells are selected with puromycin ([…]) for 8 days. […]
In one embodiment, impairment of s.c. tumor growth or time to progression rather than decrease in size of an established tumor is assessed. […] Tumors are measured every 2-3 days. […] Tumor volume is calculated with formula 4/3πr^3, where r is the radius of the tumor.

Test [6] deals with HeLa cells. Description: Telomere length and cell cycle by flow cytometry in AZT-treated telomerase-positive HeLa cells. The class given is cell-based, human. Conditions: AZT under the same conditions. Here is the method:
as §1, §2, §3
(In general: In flow cytometry, cells or beads pass a laser one at a time.)

[7] abbreviates: U-2 OS, GCV 0.3 μg/ml, 14 days, listed as ganciclovir.

With `Nc1nc(O)c2ncn(COC(CO)CO)c2n1` [GCV, ganciclovir], in test [1] (U-2 OS, GCV 0.3 μg/ml, 14 days), the apoptosis entry is on record as “massive apoptosis”, the “cell cycle distribution (PI)” value is listed as “G2 arrest” and the “telomere length (telomere-specific PNA probe)” value is reported as “telomere shortening”. In addition, in test [1] (setting [7]), the “cell cycle distribution (PI)” value was “changes in cell cycle” and the “telomere length (telomere-specific PNA probe)” value is “decrease in telomere length”.

Take `Cc1cn([C@H]2C[C@H](N=[N+]=[N-])[C@@H](CO)O2)c(=O)[nH]c1=O` [AZT, 3′-azido-2′,3′-dideoxythymidine]: the “rate of DNA synthesis (BdU incorporation)” value in test [2] is “decrease in DNA synthesis”. Moreover, the “DNA content (PI staining) compared to untreated cells” value in test [1] (AZT treated cells at later stages of treatment) is “higher DNA content”. Also, the “treatment time after which changes in cell cycle distribution, DNA synthesis and telomere length could be detected” value in test [1] (U-2 OS, AZT) turned out to be 10 days. In addition, in test [1] (U-2 OS, AZT 0.2 μM, 14 days), the apoptosis result is listed as “massive apoptosis”, the “cell cycle distribution (PI)” value is recorded as “G2 arrest; also recorded: changes in cell cycle” and the “telomere length (telomere-specific PNA fluorescence)” value was “telomere shortening; also recorded: decrease in telomere length”. Further, the “telomere length over time of treatment” value in test [1] (U-2 OS, AZT for 10, 17 and 40 days) is on record as “progressive telomere shortening”. For the same compound, the “inhibition of telomerase-positive tumors” value in test [3] is “cannot be inhibited”. Also, in test [4], the apoptosis result is “massive apoptosis”, the “cell cycle distribution (PI)” value was “G2 arrest; also recorded: changes in cell cycle” and the “telomere length (telomere-specific PNA fluorescence)” value was “telomere shortening; also recorded: decrease in telomere length”. The tumor development entry in test [5] is “remain tumor free”. For the same compound, in test [6], the cell cycle distribution result is “no effect” and the telomere length result is on record as “no effect”.
